Results from article PMC8867545 (ACS Omega, 2022).

Experiments:
[1] = tested on: β-glucosidase (β-Glcase); test: UV-vis absorption at […] nm, Lineweaver-Burk; assay type: biochemical, Prunus dulcis; details: 1x PBS pH 5.33, room temperature, 100 μg/mL enzyme, 10-500 μM substrate
[2] = tested on: β-glucosidase (β-Glcase); test: UV-vis absorption at […] nm, Lineweaver-Burk; assay type: biochemical, Prunus dulcis; details: 1x PBS pH 5.33, room temperature, 100 μg/mL enzyme, 5-200 μM substrate

`N#Cc1cccnc1S[C@@H]1O[C@H](CO)[C@@H](O)[C@H](O)[C@H]1O` [Glc-o-MPN] showed a Km [1] of 228 µM.

Work on `N#Cc1ccc(S[C@@H]2O[C@H](CO)[C@@H](O)[C@H](O)[C@H]2O)nc1` [Glc-p-MPN] yielded a Km [2] of 162 µM.
